# Experimental data published in PubChem BioAssay AID2753 (Vanderbilt High Throughput Screening Facility, 2010).
# pIC50: −log10 of the molar value. Calls of active or inactive are those of the source. How the calls were made is not given here.
# Target: ATP-sensitive inward rectifier potassium channel 1 (Homo sapiens) (UniProt P48048)
# Test: concentration-response of Kir1.1 channel inhibition – cell-based, thallium flux, HEK293, dose response (AID 2753)
# Settings: HEK293 ROMK thallium flux, fluorescence
# Chain of ATP-sensitive inward rectifier potassium channel 1 (Homo sapiens) (P48048 whole entry, looked up): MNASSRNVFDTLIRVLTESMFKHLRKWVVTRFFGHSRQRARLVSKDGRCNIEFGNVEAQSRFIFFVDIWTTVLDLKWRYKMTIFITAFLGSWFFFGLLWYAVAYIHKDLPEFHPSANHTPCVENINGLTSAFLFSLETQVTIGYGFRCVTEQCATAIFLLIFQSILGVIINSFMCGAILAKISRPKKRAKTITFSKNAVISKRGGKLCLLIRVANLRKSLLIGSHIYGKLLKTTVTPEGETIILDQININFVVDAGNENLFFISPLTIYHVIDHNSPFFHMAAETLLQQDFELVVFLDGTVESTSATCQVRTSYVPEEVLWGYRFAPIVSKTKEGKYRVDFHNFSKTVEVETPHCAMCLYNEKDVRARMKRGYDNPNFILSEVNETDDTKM
Compound,IC50,pIC50
N#C/C(=C\c1ccc(O)c(Br)c1)C(=O)NCc1ccccc1,inactive,–
O=C(O)c1ccc(Cn2cnc3scc(-c4ccccc4)c3c2=O)cc1,–,5.01
N#C/C(=C\C1=C(N2CCOCC2)C(=C\c2ccccc2)/CC1)C(=O)Nc1ccccc1F,–,4.84
Cc1cc(C)c(C)c(S(=O)(=O)NC2CCN(Cc3ccccc3)CC2)c1C,–,4.77
CC(/C=C1\SC(=S)N(CCCC(=O)Nc2ccc(C(=O)O)cc2)C1=O)=C\c1ccccc1,–,3.92
Cc1ccc2[nH]cc(C(=O)CCl)c2c1,–,5.38
N#Cc1nc(-c2cccs2)oc1NCc1ccccc1,–,5.15
Cc1ccc(C(C)C)c(OCC(=O)NN=C(CCl)CCl)c1,inactive,–
O=C(N/N=C/c1cn(-c2cccs2)nc1-c1ccccc1)c1ccc(O)cc1,–,5.30
COc1ccc(NC(=O)/C(C#N)=C/c2ccc(Sc3nncn3C)c([N+](=O)[O-])c2)cc1,–,5.37
CC(=O)/C(=C/c1ccccc1)C(=O)Nc1ccccc1C,–,4.64
CCOc1cc(C)c(Cl)cc1S(=O)(=O)NC1CC(C)(C)NC(C)(C)C1,–,4.08
CN(C)CCNC(=O)/C(=C/c1ccc(-c2ccc(Cl)cc2)o1)NC(=O)c1ccccc1,inactive,–
CCCS(=O)(=O)c1nnnn1-c1cccc(OC)c1,inactive,–
CS(=O)(=O)n1nc(OC(=O)c2cc(Br)ccc2Cl)cc1N,inactive,–
CN(CCCC(=O)Nc1ccncc1)S(=O)(=O)c1ccc(Cl)cc1,inactive,–
O=C(NCc1cccnc1)/C(=C/c1ccc(-c2cccc(Cl)c2)o1)S(=O)(=O)c1ccccc1,inactive,–
CN(C)c1nc(C=C(C#N)C#N)c(Cl)n1-c1ccc(F)cc1,–,5.53
CC1CCN(C(=O)CSCC(=O)Nc2nc(-c3cccs3)cs2)CC1,inactive,–
N#CC1=C(N)N(c2ccccc2)C(c2cccc([N+](=O)[O-])c2)C1(C#N)C#N (stereo unspecified),–,4.94
COc1cccc(C(c2nnnn2Cc2ccccc2)N2CCN(C3CCCC3)CC2)c1OC (stereo unspecified),–,4.45

Compound,IC50,pIC50
CCOc1ccccc1N(CC(=O)N1CCOCC1)S(=O)(=O)c1ccc(SC)cc1,–,5.86
Cc1ccccc1N1C(=S)NC2c3ccccc3OC1(C)C2C(=O)N(C)C (stereo unspecified),–,7.94
COc1ccccc1/C=C(\C#N)C(=O)Nc1ccc(S(N)(=O)=O)cc1,inactive,–
O=C(Cn1nc(CNc2ccc(Cl)cc2)[n+]2c1CCCCC2)c1ccc(Cl)cc1,–,5.26
CCOCCCNC(=O)/C(C#N)=C/c1ccc(C(=O)OC)cc1,inactive,–
COC(=O)[C@@]1(Cc2ccccc2)[C@@H]2C(=CC(=O)[C@H]2CC(=O)C(=O)N(C)C)CN1C(=O)c1ccccc1,–,4.09
O=C(NCc1ccccc1)N1CCC(n2cnc3cc(F)ccc32)CC1,inactive,–
CCOC(=O)c1c(NC(=O)C[n+]2ccc(Cc3ccccc3)cc2)sc(C)c1C,inactive,–
CCc1cccc(NC(=O)CSC2=NS(=O)(=O)c3ccccc32)c1,inactive,–
CCOC(=O)N1CCN(S(=O)(=O)c2ccc3c(c2)SCC(=O)N3)CC1,inactive,–
N#C/C(=C\c1ccncc1)c1nc2ccccc2[nH]1,inactive,–
COC(=O)Cn1cc(/C=C/[N+](=O)[O-])c2ccccc21,–,4.20
O=C1N=C2SCCN2/C1=C\c1ccc(Cl)cc1,–,5.32
CC1=NOC(=O)/C1=C\c1ccc(-c2ccccc2Br)o1,inactive,–
Cc1ccccc1-n1sc2cc(F)ccc2c1=O,inactive,–
CC(C(=O)c1ccc(-c2ccccc2)cc1)[n+]1cccc(NC(=O)c2ccccc2)c1 (stereo unspecified),–,4.56
O=C1C=CC(=O)C(C2=C3C(=O)N(CCc4ccccc4)CC(=O)N3CCC2)=C1,–,4.89
Cc1cnc2ncc3sccc3c2c1,–,4.87
N#C/C(=C\c1ccc(Cl)c([N+](=O)[O-])c1)c1ccccn1,–,5.44
N#C/C(=C\c1cccc([N+](=O)[O-])c1)c1nnc2n1CCCCC2,inactive,–
